Measured values taken from ChEMBL document CHEMBL1201862, “PubChem BioAssay data set” (2004).
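Following 48 hours of exposure in 96-well plates, responses at five concentrations were used to interpolate endpoints linearly. GI50: concentration for 50% inhibition of growth.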 Activity calls are given as the source filed them. Rule as the data show it: active = GI50 up to about 1.1 µM and inactive = higher.

Key:
Assay in all cases: NCI anticancer screen, dose series, 48 h
A549 = system: A549
COLO 205 = system: COLO 205
HCC 2998 = system: HCC 2998
HCT-116 = system: HCT-116
K562 = system: K562
KM-20L2 = system: KM-20L2
LOX IMVI = system: LOX IMVI
M19-MEL = system: M19-MEL
MCF7 = system: MCF7
Malme-3M = system: Malme-3M
NCI-H460 = system: NCI-H460
OVCAR-5 = system: OVCAR-5
RPMI-8226 = system: RPMI-8226
SF-295 = system: SF-295
SK-OV-3 = system: SK-OV-3
U-251 = system: U-251
UACC-257 = system: UACC-257
UACC-62 = system: UACC-62
M14 = system: M14
SR = system: SR

Row | Compound | GI50 (A549) | GI50 (COLO 205) | GI50 (HCC 2998) | GI50 (HCT-116) | GI50 (K562) | GI50 (KM-20L2) | GI50 (LOX IMVI) | GI50 (M19-MEL) | GI50 (MCF7) | GI50 (Malme-3M) | GI50 (NCI-H460) | GI50 (OVCAR-5) | GI50 (RPMI-8226) | GI50 (SF-295) | GI50 (SK-OV-3) | GI50 (U-251) | GI50 (UACC-257) | GI50 (UACC-62) | GI50 (M14) | GI50 (SR)
1 | O=NN(CCF)C(=O)NC1CCSCC1 | > 100 µM (inactive) | > 100 µM (inactive) | > 100 µM (inactive) | > 100 µM (inactive) | > 31.6 µM (inactive) | > 100 µM (inactive) | > 100 µM (inactive) | > 100 µM (inactive) | > 100 µM (inactive) | > 100 µM (inactive) | > 100 µM (inactive) | > 100 µM (inactive) | > 100 µM (inactive) | > 100 µM (inactive) | > 100 µM (inactive) | > 100 µM (inactive) | > 100 µM (inactive) | > 100 µM (inactive) |  | 
2 | COc1nc(O)c(N)c(NC2OC(CO)C(O)C(O)C2O)n1 (stereo unspecified) | > 100 µM (inactive) | > 100 µM (inactive) | > 100 µM (inactive) | > 100 µM (inactive) | > 90.8 µM (inactive) | > 100 µM (inactive) | > 100 µM (inactive) | > 100 µM (inactive) | > 100 µM (inactive) | > 100 µM (inactive) | > 100 µM (inactive) | > 100 µM (inactive) | > 100 µM (inactive) | > 100 µM (inactive) | > 100 µM (inactive) | > 100 µM (inactive) | > 100 µM (inactive) | > 100 µM (inactive) |  | 
3 | CCC(C(C)N1CC(=O)NC(=O)C1)N1CC(=O)NC(=O)C1 (stereo unspecified) | 1.51 µM (inactive) | 0.506 µM (active) | > 61.4 µM (inactive) | 23.4 µM (inactive) | 9.77 µM (inactive) | > 69.2 µM (inactive) | > 100 µM (inactive) | 41.4 µM (inactive) | 4.08 µM (inactive) | 13.4 µM (inactive) | 0.141 µM (active) | > 25.1 µM (inactive) | 97.5 µM (inactive) | > 100 µM (inactive) | > 100 µM (inactive) | > 61.9 µM (inactive) | > 100 µM (inactive) | > 100 µM (inactive) |  | 
4 | CCCCSCC(NC(=O)/C=C/c1c(C)[nH]c(=O)[nH]c1=O)C(=O)OC (stereo unspecified) | 124 µM (inactive) | 36.5 µM (inactive) | 29 µM (inactive) | 30.3 µM (inactive) | 44.1 µM (inactive) | 61.7 µM (inactive) | 78.3 µM (inactive) | 38.4 µM (inactive) | 15.6 µM (inactive) | 15.7 µM (inactive) | 57.5 µM (inactive) | 77.1 µM (inactive) | 104 µM (inactive) | 101 µM (inactive) | 45.4 µM (inactive) | 16.6 µM (inactive) | 81.7 µM (inactive) | 51.9 µM (inactive) |  | 
5 | Cc1ccccc1NC(=O)CC(=O)N1N=C(N2c3ccccc3Sc3ccccc32)CC1c1ccccc1 (stereo unspecified) | > 100 µM (inactive) | > 100 µM (inactive) | > 100 µM (inactive) | > 100 µM (inactive) |  | > 100 µM (inactive) | > 100 µM (inactive) | > 100 µM (inactive) |  | > 100 µM (inactive) | > 100 µM (inactive) | > 100 µM (inactive) | > 100 µM (inactive) | > 100 µM (inactive) | > 100 µM (inactive) | > 100 µM (inactive) | > 100 µM (inactive) | > 100 µM (inactive) | > 100 µM (inactive) | > 100 µM (inactive)
6 | CCCOC(=O)CCC(NC(=O)c1ccc(Nc2nc3ccccc3nc2-c2cccs2)cc1)C(=O)OCCC (stereo unspecified) | > 100 µM (inactive) | > 100 µM (inactive) | 95.5 µM (inactive) | > 100 µM (inactive) | > 100 µM (inactive) | > 100 µM (inactive) | > 100 µM (inactive) | > 100 µM (inactive) |  | 19.1 µM (inactive) |  | 56 µM (inactive) | > 100 µM (inactive) | > 100 µM (inactive) | > 100 µM (inactive) | > 100 µM (inactive) |  | 41.7 µM (inactive) |  | 61.9 µM (inactive)
7 | Cc1cccc2c1Sc1ccccc1C2NC(=O)CN(C)C (stereo unspecified) | > 100 µM (inactive) | > 100 µM (inactive) | 47.6 µM (inactive) | > 100 µM (inactive) | 81.1 µM (inactive) | 18.7 µM (inactive) | > 100 µM (inactive) | 47.4 µM (inactive) |  |  | > 100 µM (inactive) | > 100 µM (inactive) | 77.8 µM (inactive) |  | > 100 µM (inactive) | > 100 µM (inactive) | 52.6 µM (inactive) | > 100 µM (inactive) | 41.4 µM (inactive) | 54.7 µM (inactive)
8 | CC1(C)CC23C4COC(=O)C2CCC1C3CC4=O (stereo unspecified) | 19.1 µM (inactive) | 15.6 µM (inactive) | 13.9 µM (inactive) | 6.71 µM (inactive) | 9.84 µM (inactive) | 21.4 µM (inactive) | 8.39 µM (inactive) | 11.9 µM (inactive) | 19.5 µM (inactive) | 7.21 µM (inactive) | 11.1 µM (inactive) | 32.6 µM (inactive) | 5.28 µM (inactive) | 19.8 µM (inactive) | 39.3 µM (inactive) | 20.7 µM (inactive) | 9.59 µM (inactive) | 10.5 µM (inactive) |  | 
9 | O=Cc1c(Br)[nH]c2ccccc12 | > 100 µM (inactive) | 97.9 µM (inactive) | > 100 µM (inactive) | 84.7 µM (inactive) | > 100 µM (inactive) | > 100 µM (inactive) | 71.6 µM (inactive) | > 79.6 µM (inactive) | 47 µM (inactive) | > 100 µM (inactive) | > 100 µM (inactive) | > 91.4 µM (inactive) | 19.3 µM (inactive) | 75.2 µM (inactive) | 94.4 µM (inactive) | 89.3 µM (inactive) | 26.9 µM (inactive) | 47 µM (inactive) |  | 
10 | NC(=O)OCC1=C(COC(N)=O)C(=O)c2c(O)ccc(O)c2C1=O | > 100 µM (inactive) | 58.7 µM (inactive) | > 100 µM (inactive) | > 100 µM (inactive) | 61.9 µM (inactive) | > 100 µM (inactive) |  | 3.46 µM (inactive) |  | > 100 µM (inactive) |  | > 100 µM (inactive) | > 100 µM (inactive) | > 100 µM (inactive) | > 100 µM (inactive) | > 100 µM (inactive) | > 100 µM (inactive) | 27.3 µM (inactive) | > 100 µM (inactive) | > 100 µM (inactive)
